This note sets out measurements from ChEMBL document CHEMBL6083192, “Discovery of 1,2,4-Triazole-3-thione Derivatives as Potent and Selective DCN1 Inhibitors for Pathological Cardiac Fibrosis and Remodeling” (J Med Chem, 2024).

The target of series [1] is DCN1-like protein 1/NEDD8-conjugating enzyme Ubc12 (Homo sapiens, UniProt Q96GG9). In words: Inhibition of GST-tagged DCN1 (unknown origin)/acetylated-biotin tagged UBC12 (unknown origin) protein-protein interaction incubated for 30 mins by HTRF assay. For orientation: TR-FRET usually uses a lanthanide donor and a delayed reading to cut background.
Series [2] is described as follows: Hepatotoxicity in human L02 cells assessed as reduction in cell viability by MTT assay. (Tetrazolium assays rely on reduction of a dye to a coloured formazan, in cell work by metabolically active cells.)
The next series concerns the target DCN1-like protein 1 (Homo sapiens, UniProt Q96GG9). Description: Inhibition of DCN1 (unknown origin) assessed as inhibition constant.
Series [3] in a line: Inhibition of GST-tagged DCN2 (unknown origin)/acetylated-biotin tagged UBC12 (unknown origin) protein-protein interaction assessed as inhibition constant incubated for 30 mins by HTRF assay.
Series [4] in a line: Inhibition of GST-tagged DCN5 (unknown origin)/acetylated-biotin tagged UBC12 (unknown origin) protein-protein interaction assessed as inhibition constant incubated for 30 mins by HTRF assay.
Series [5] in a line: Inhibition of GST-tagged DCN3 (unknown origin)/acetylated-biotin tagged UBC12 (unknown origin) protein-protein interaction assessed as inhibition constant incubated for 30 mins by HTRF assay.
Series [6] in a line: Inhibition of GST-tagged DCN4 (unknown origin)/acetylated-biotin tagged UBC12 (unknown origin) protein-protein interaction assessed as inhibition constant incubated for 30 mins by HTRF assay.

For orientation: IC50 means the concentration that gives 50% inhibition. As usually defined, the Ki is the equilibrium dissociation constant of an inhibitor or competing ligand from its target.

SMILES strings stand for the structures.

Sequence of DCN1-like protein 1/NEDD8-conjugating enzyme Ubc12 (Q96GG9 whole entry): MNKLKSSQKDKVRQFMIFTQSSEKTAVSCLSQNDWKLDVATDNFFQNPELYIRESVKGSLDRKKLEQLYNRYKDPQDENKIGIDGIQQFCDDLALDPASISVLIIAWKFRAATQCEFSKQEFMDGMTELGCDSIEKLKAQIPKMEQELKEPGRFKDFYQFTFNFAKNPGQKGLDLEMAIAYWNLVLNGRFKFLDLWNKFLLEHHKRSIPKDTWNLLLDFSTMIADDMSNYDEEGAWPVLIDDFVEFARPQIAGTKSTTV
Sequence of DCN1-like protein 1/NEDD8-conjugating enzyme Ubc12 (P61081 whole entry, further chain): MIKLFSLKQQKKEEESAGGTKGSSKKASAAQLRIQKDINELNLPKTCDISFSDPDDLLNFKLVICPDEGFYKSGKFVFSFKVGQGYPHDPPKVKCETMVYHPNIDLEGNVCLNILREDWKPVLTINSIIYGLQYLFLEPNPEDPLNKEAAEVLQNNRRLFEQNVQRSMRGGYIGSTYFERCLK
Sequence of DCN1-like protein 1 (Q96GG9 whole entry): as the sequence (Q96GG9 whole entry) above

On to `CC(C)c1cccc(NC(=O)CCn2c(-c3ccc(Cl)cc3)n[nH]c2=S)c1`, for which the IC50 in series [1] was 15.7 nM; in series [2], greater than 100 µg/mL.
The corresponding values for `CC(C)c1ccc(NC(=O)CCn2c(-c3ccc(Cl)cc3)n[nH]c2=S)cc1` are 12.8 nM and greater than 100 µg/mL.
The molecule `C#CCNC(=O)CCn1c(-c2ccc(OC)cc2)n[nH]c1=S` came in with an IC50 in series [1] greater than 20000 nM.
Regarding `O=C(CCn1c(-c2c[nH]c3ccccc23)n[nH]c1=S)Nc1cccc(C(F)(F)F)c1`, the IC50 is 9.39 nM in series [1] and greater than 100 µg/mL in series [2].
On to `COc1ccc(NC(=O)CCn2c(-c3ccc(Cl)cc3)n[nH]c2=S)cc1`, for which the IC50 in series [1] was 90.9 nM.
In the case of `O=C(CCCn1c(-c2ccc(Cl)cc2)n[nH]c1=S)Nc1cccc(C(F)(F)F)c1`, in series [1], the half-maximal inhibitory concentration (IC50) amounted to 45.2 nM.
On the same count and under the same terms, for `O=C(CCn1c(-c2ccc(Cl)cc2Br)n[nH]c1=S)Nc1cccc(C(F)(F)F)c1` the value was 5.41 nM; for `CCSc1nnc(-c2ccc(Cl)cc2)n1CCC(=O)Nc1cccc(C(F)(F)F)c1`, 2200 nM.
Take `O=C(CCn1c(-c2ccc(F)cc2)n[nH]c1=S)Nc1cccc(C(F)(F)F)c1`: the figures for the IC50 in series [1] and in series [2] were 18.9 nM and greater than 100 µg/mL, respectively.
Consider `COc1ccc(-c2n[nH]c(=S)n2CCC(=O)Nc2cc(C)ccc2O)cc1`, for which, in series [1], 1460 nM corresponded to half-maximal inhibition (IC50).
In the case of `O=C(CCn1c(-c2ccc(Cl)cc2)n[nH]c1=S)Nc1ccc(Br)cc1`, the midpoint of inhibition in series [1], the IC50, lay at 25.6 nM.
Same read-out and setting: next, `COc1ccc(-c2n[nH]c(=S)n2CCC(=O)Nc2cc(C(C)(C)C)ccc2O)cc1`: 2320 nM.
With `COc1ccc(-c2n[nH]c(=S)n2CCC(=O)Nc2cccc(C(F)(F)F)c2)cc1`, the IC50 in series [1] is 14.1 nM; in series [2], greater than 100 µg/mL.
In turn, `O=C(CSc1nnc(-c2ccc(Cl)cc2)n1CCC(=O)Nc1cccc(C(F)(F)F)c1)NC(=O)Nc1ccccc1` returned an IC50 in series [1] greater than 20000 nM.
The same measure, in the same setting: for `O=C(CCn1c(-c2ccc(Cl)cc2)n[nH]c1=O)Nc1cccc(C(F)(F)F)c1` the value was 7580 nM.
Turning to `C=C(CN(C)C)C(=O)NC[C@@H](NC(=O)[C@H](Cc1nc2ccc(C(C)C)cc2s1)NC(=O)CC)C1CCCCC1`, the inhibition constant (Ki) on DCN1-like protein 1 is less than 1 nM.
Take `O=C(CCn1c(SCC(=O)Nc2ccccc2)nnc1-c1ccc(Cl)cc1)Nc1cccc(C(F)(F)F)c1`: the IC50 in series [1] is greater than 20000 nM.
Still for that read-out and setting: next, `COc1ccc(CSc2nnc(-c3ccc(Cl)cc3)n2CCC(=O)Nc2cccc(C(F)(F)F)c2)cc1`: 4110 nM; `O=C(CCn1c(-c2ccc(Cl)cc2)n[nH]c1=S)Nc1ccc(O)cc1`: greater than 20000 nM.
On the same count and under the same terms, for `O=C(CCn1c(-c2ccc(Cl)cc2)n[nH]c1=S)Nc1cccc(Br)c1` the value was 22.2 nM.
For the molecule `O=C(CCn1c(-c2ccc(Cl)cc2)n[nH]c1=S)Nc1cc(-c2ccccc2)ccc1O`, the IC50 in series [1] came out at 330 nM.
On the same count and under the same terms, for `O=C(CCn1c(-c2ccc(Cl)cc2)n[nH]c1=S)Nc1ccccc1` the value was 545 nM.
The same measure, in the same setting: for `COc1ccc(-c2n[nH]c(=S)n2CCC(=O)NCc2ccoc2)cc1` the value was greater than 20000 nM; for `Cc1cccc2[nH]c(CSc3nnc(-c4ccc(Cl)cc4)n3CCC(=O)Nc3cccc(C(F)(F)F)c3)nc12`, 7110 nM; for `O=C(CCn1c(-c2ccc(Cl)cc2)n[nH]c1=S)Nc1ccc(F)cc1`, 130 nM.
For the molecule `O=C(CCn1c(-c2cccc(Cl)c2)n[nH]c1=S)Nc1cccc(C(F)(F)F)c1`, the IC50 in series [1] is 19.9 nM; in series [2] it was greater than 100 µg/mL.
For `COc1ccccc1NC(=O)CCn1c(-c2ccc(Cl)cc2)n[nH]c1=S`, the IC50 in series [1] came out at 884 nM.
On the same count and under the same terms, next, `O=C(CCn1c(-c2ccc(Br)cc2)n[nH]c1=S)Nc1cccc(C(F)(F)F)c1`: 24.9 nM; `COc1ccc(CNC(=O)CCn2c(-c3ccc(OC)cc3)n[nH]c2=S)cc1`: greater than 20000 nM; `CC(C)(C)c1ccc(O)c(NC(=O)CCn2c(-c3ccc(Cl)cc3)n[nH]c2=S)c1`: 195 nM.
As to `C#CCSc1nc(Sc2nccs2)c(C#N)c(-c2ccc(C)cc2)n1`, the Ki was 66.2 nM in series [3], 2140 nM in series [4], 592 nM in series [5] and 810 nM in series [6].
`COc1ccc(-c2n[nH]c(=S)n2CCC(=O)Nc2cc(C#N)[nH]n2)cc1` had an IC50 in series [1] greater than 20000 nM.
As to `O=C(CCn1c(-c2ccccc2)n[nH]c1=S)Nc1cccc(C(F)(F)F)c1`, the IC50 in series [1] is 15.3 nM; in series [2] it was greater than 100 µg/mL.
The corresponding values for `CC(C)(C)c1ccc(NC(=O)CCn2c(-c3ccc(Cl)cc3)n[nH]c2=S)cc1` are 8.77 nM and greater than 100 µg/mL.
`CC(C)(C)c1ccc(-c2n[nH]c(=S)n2CCC(=O)Nc2cccc(C(F)(F)F)c2)cc1`: the IC50 in series [1] came to 7.85 nM.
Still for that read-out and setting: for `C#CCNC(=O)CCn1c(-c2ccc(Cl)cc2)n[nH]c1=S` the value was greater than 20000 nM; for `COc1cccc(NC(=O)CCn2c(-c3ccc(Cl)cc3)n[nH]c2=S)c1`, 77.6 nM.
Consider `O=C(CCn1c(-c2ccc(O)cc2)n[nH]c1=S)Nc1ccc(C(F)(F)F)cc1`, for which the IC50 in series [1] is 10.6 nM; in series [2], greater than 100 µg/mL.
In series [1], `O=C(CCn1c(-c2ccc(Cl)cc2)n[nH]c1=S)NCCc1c[nH]c2ccccc12` displayed an IC50 of 2170 nM.
For the molecule `CCCCc1ccc(NC(=O)CCn2c(-c3ccc(Cl)cc3)n[nH]c2=S)cc1`, the results for the IC50 in series [1] and in series [2] were 12.3 nM and greater than 100 µg/mL, respectively.
Consider `O=C(CCn1c(-c2ccc(O)cc2)n[nH]c1=S)Nc1ccccc1C(F)(F)F`, for which, in series [1], the midpoint of inhibition, the IC50, lay at 100 nM.
With `Cc1ccc(-c2n[nH]c(=S)n2CCC(=O)Nc2cccc(C(F)(F)F)c2)cc1`, the IC50 in series [1] was 9.42 nM; in series [2], greater than 100 µg/mL.
For `O=C(CCn1c(-c2ccc(O)cc2)n[nH]c1=S)NCc1cccc(C(F)(F)F)c1`, 43.1 nM corresponded to half-maximal inhibition in series [1] (IC50).
On the same count and under the same terms, next, `COc1ccc(-c2n[nH]c(=S)n2CCC(=O)Nc2ccc(Br)cc2O)cc1`: 209 nM.
In series [1], `O=C(CCn1c(-c2ccc([N+](=O)[O-])cc2)n[nH]c1=S)Nc1cccc(C(F)(F)F)c1` registered an IC50 of 46.2 nM.
Same read-out and setting: next, `O=C(Cn1c(-c2ccc(Cl)cc2)n[nH]c1=S)Nc1cccc(C(F)(F)F)c1`: 27.4 nM; `O=C(CCn1c(-c2ccc(Cl)cc2)n[nH]c1=S)NCc1ccoc1`: greater than 20000 nM; `COc1ccc(-c2n[nH]c(=S)n2CCC(=O)Nc2cc(-c3ccccc3)ccc2O)cc1`: 1110 nM.
On the same count and under the same terms, for `O=C(CCn1c(-c2ccc(Cl)cc2)n[nH]c1=S)Nc1ccc(Cl)cc1` the value was 69.4 nM.
Same read-out and setting: for `COc1ccc(CNC(=O)CCn2c(-c3ccc(Cl)cc3)n[nH]c2=S)cc1` the value was greater than 20000 nM; for `COc1ccc(-c2n[nH]c(=S)n2CCC(=O)Nc2ccc(OC)cc2OC)cc1`, 840 nM.
Take `COc1cc(-c2nc(SCc3ccc(Cl)cc3)nc(Sc3nnnn3C)c2C#N)cc(OC)c1OC`: the Ki in series [3] is 18.8 nM; in series [4], greater than 20000 nM; in series [5], 385 nM; in series [6], greater than 20000 nM.
As to `N#Cc1cc(NC(=O)CCn2c(-c3ccc(Cl)cc3)n[nH]c2=S)n[nH]1`, in series [1], the IC50 is greater than 20000 nM.
For `CSc1nnc(-c2ccc(Cl)cc2)n1CCC(=O)Nc1cccc(C(F)(F)F)c1`, the IC50 in series [1] was 1630 nM.
Same read-out and setting: for `O=C(CCn1c(-c2ccncc2)n[nH]c1=S)Nc1cccc(C(F)(F)F)c1` the value was 221 nM; for `Cc1ccc(NC(=O)CCn2c(-c3ccc(Cl)cc3)n[nH]c2=S)cc1`, 50.5 nM; for `Cc1ccc(O)c(NC(=O)CCn2c(-c3ccc(Cl)cc3)n[nH]c2=S)c1`, 650 nM.
The same measure, in the same setting: for `COc1ccc(-c2n[nH]c(=S)n2CCC(=O)NCCc2c[nH]c3ccccc23)cc1` the value was 2280 nM.
Still for that read-out and setting: for `O=C(CCn1cnnc1-c1ccc(Cl)cc1)Nc1cccc(C(F)(F)F)c1` the value was 15800 nM; for `O=C(CCn1c(-c2ccccc2Cl)n[nH]c1=S)Nc1cccc(C(F)(F)F)c1`, 28.8 nM.
